Measured values from patent EP2511272B1, “Synthetic analogues of abscisic acid with anti-inflammatory and insulin release stimulation effects on human cells” (Universita' degli Studi di Genova, priority 2011, dated 2012).

Assays:
[1] = tested on: human granulocytes; experiment: Production of reactive oxygen species (ROS), H2DCFDA fluorescence; assay type: cell-based
Experimental: Human granulocitytes, after ON incubation in complete DMEM/F12, were resuspended at 1x10^7/ml in HBSS and spiked with the fluorescent probe (10 µM), specific for ROS determination, 2',7'-dichlorodihydrofluorescein diacetate (H2DCFDA), for 30 min at 37 °C.
They were subsequently washed twice with HBSS and resuspended at 1x10^6 cells/ml in HBSS and then were kept at room temperature for approximately 30 minutes.
The cells (100 µl) were added to a 96-well plate pre-loaded with ABA 1 µM, either alone or with increasing concentrations of the compound prepared according to example 1.
The increase in fluorescence was measured at 10-sec intervals for 10 minutes, with Fluostar OPTIMA fluorometer (λexc: 485; λemis: 520).
The experiment was carried out three times in triplicate.
Human granulocutes stimulated with 1 µM ABA become activated, and produce quite large amounts of reactive oxygen species (ROS) (Bruzzone, jbc 2007). The results were expressed as the average of the results obtained from three independent experiments, from which the background value, obtained from the control, had been subtracted. TABLE 4. Inhibition of ROS production, in human granulocytes stimulated with ABA, by compound prepared according to example 1.

[2] = tested on: Human pancreatic beta cells; experiment: Insulin release (secretion index) by human pancreatic beta cells; assay type: cell-based
Experimental: Human pancreatic beta cells were incubated in 5 […], or 25 mM glucose (HG), in the absence or in the presence of 100 nM ABA or of compound according to example 1 ([…]). Insulin release is expressed as the secretion index (SI) relative to insulin release in LG..
As in the preceding example, for the experimental procedere, reference may be made to the there cited paper, except for the specific use of compound according to example 1. TABLE 13. Effect of ABA and of compound prepared according to example 1 on insulin release (SI) by human pacreatic beta cells at 30 minutes and 120 minutes.

[3] = tested on: granulocytes; experiment: Inhibition of ABA-induced chemotaxis (granulocyte migration, ChemoTx); assay type: cell-based, human
Experimental: After ON (overnight) incubation in complete DMEM/F12, granulocytes were washed in HBSS and then were resuspended at the concentration of 1x10^7 cells/ml in chemotaxis buffer (HBSS:PBS:5% albumin; 39:16:1).
Chemotaxis was carried out on 96-well plates ChemoTx system microplates (Neuro Probe, Inc., Gaithersburg, MD, U.S.A.) with a polycarbonate filter with 3 µm-diameter pores. The compound prepared according to example 1 was diluted in chemotaxis buffer at various concentrations (5 µM, 100 nM, 1 nM, 0.1 nM) and was added, either alone or together with a solution of 1 µM ABA to the bottom of the plate. The suspension of the cells (25 µl/well) was added to the filter and the plate was incubated for 90 minutes at 37 °C. The migrated cells were transferred to a white 96-well plate and were counted with 60 µl of a solution containing 0.2 % (v/v) of Nonidet P40 and 1 µM Sitox green. After a 20-minute incubation at 37 °C, the fluorescence was measured with Fluostar OPTIMA fluorometer (excitation wavelength λexc = 485 nm and emission wavelength λemis = 520 nm) and the cell number was computed by using a standard cellular curve obtained from serial diltion cellular suspension of granulocytes. The result is expressed as the "chemotactic index" (CI), which corresponds to the ratio of the number of cells migrated towards the chemoattractant divided by the number of cells migrated towards the substrate). A chemotactic index higher than 1 is indicative of chemoattraction of cells. The test was carried out three times in sextuplicate.

[4] = tested on: human granulocytes; experiment: Stability without extraction in HBSS in the presence of human granulocytes (HPLC-MS); assay type: in vitro ADME; conditions: for Stability (without extraction): Granulocytes in HBSS, 10 µM, 37 °C
Experimental: Additionally, stability tests were carried out in water, in HBSS and in HBSS in the presence of human granulocytes at time 0, and after 1 and 2 hrs at 37 °C, and carrying out HPLC-MSS analysis without extracting the analyte of interest.
In order to test the compound prepared according to example 1 for stability in HBSS in the presence, or absence, of granulocytes, 1 x 10^8 cells were used in 2 ml of HBSS (with calcium and magnesium added) containing 10 µM of compound prepared according to example 1 at 37°C. Samples of 500 µl each were drawn at time 0, and after 1 and 2 hrs and the cells were separated by centrifugation at 200xg for 5 minutes; the supernatant was then recovered and directly analysed in HPLC-MS.
The HPLC-MS system used consists of an Agilent 1100 capillary chromatograph equipped with a diode array detector (DAD) and coupled with an Agilent 1100 series LC/MSD Trap mass spectometer with orthogonal electrospray source and a ionic-trap analyser.
The detection wavelength was 254 nm and the MS spectrum was recorded in negative ions mode in an m/z range of 50-300.
The amount of compound of example 1 in the extracts and supernatants was computed as the area of the peak under the extracted ion current m/z 279.3, normalized for the ionization efficiency of internal standard (hexadeuterated ABA) used for HPLC-MS analysis. Furthermore, the concentration was computed using the recovery rates obtained from the evaluation of counts per minute (cpm) of extracted [^3H]ABA.

[5] = LG, substance 100 nM, at 30 minutes
[6] = LG, substance 100 nM, at 120 minutes

CC1=CC(=O)CC(C)(C)C1(O)/C=C/C(C)=C\C(=O)O (racemic) [ABA, (2Z,4E)-5-(1-hydroxy-2,6,6-trimethyl-4-oxo-2-cyclohexen-1-yl)-3-methyl-2,4-pentadienoic acid, reference compound]
Increase in fluorescence (delta OD)±SD ([1]; ABA 1 µM alone): 1238±8.7 delta OD | SI (insulin secretion index relative to LG) [2, 5]: 0,91 | SI (insulin secretion index relative to LG) [2, 6]: 1,8 | CI±SD (chemotactic index) ([3]; ABA 1 µM alone): 1.63±0.10

CC(=C/C(=O)O)/C=C/C1(O)C(C)(C)CC(=O)C2OC21C (stereo not drawn) [Example 1, 2'α,3'α-dihydro-2'α,3'α-epoxyabscisic acid]
Increase in fluorescence (delta OD)±SD ([1]; ABA 1 µM + compound 0.01 nM): 1325±26.5 delta OD | Increase in fluorescence (delta OD)±SD ([1]; ABA 1 µM + compound 0.5 nM): 680±13.6 delta OD | Increase in fluorescence (delta OD)±SD ([1]; ABA 1 µM + compound 1 nM): 371±1.9 delta OD | Increase in fluorescence (delta OD)±SD ([1]; ABA 1 µM + compound 1 µM): 46±0.2 delta OD | inhibition at 10 pM ([1]; Homo sapiens, ROS production, ABA 1 µM, compound 0.01 nM): 0% | inhibition at 0.0005 µM ([1]; Homo sapiens, ROS production, ABA 1 µM, compound 0.5 nM): 45% | inhibition at 0.001 µM ([1]; Homo sapiens, ROS production, ABA 1 µM, compound 1 nM): 70% | inhibition at 1 µM ([1]; Homo sapiens, ROS production, ABA 1 µM, compound 1 µM): 96% | IC50 ([1]; Homo sapiens, inhibiting the production of ROS, ABA 1 µM): ~500 pM | SI (insulin secretion index relative to LG) ([2]; HG, ABA (100 nM) + compound (100 nM) together, time not printed in the row): 3,8 | SI (insulin secretion index relative to LG) ([2]; LG, ABA (100 nM) + compound (100 nM) together, time not printed in the row): 0,72 | SI (insulin secretion index relative to LG) [2, 5]: 1,8 | SI (insulin secretion index relative to LG) [2, 6]: 2,2 | Stability (without extraction) ([4]; 0 hr): 94% | Stability (without extraction) ([4]; 1 h): 82% | Stability (without extraction) ([4]; 2 hrs): 73% | degradation rate ([4]; phosphate buffer with human granulocytes, non-extracted samples): about 10 %/ hour | CI±SD (chemotactic index) ([3]; ABA 1 µM + compound 0.1 nM): 1.37±0.05 | CI±SD (chemotactic index) ([3]; ABA 1 µM + compound 1 nM): 1.32±0.05 | CI±SD (chemotactic index) ([3]; ABA 1 µM + compound 100 nM): 1.12±0.04 | CI±SD (chemotactic index) ([3]; ABA 1 µM + compound 5 µM): 0.78±0.03 | IC50 ([3]; Homo sapiens): ~1000 pM | inhibition at 0.0001 µM ([3]; Homo sapiens, migration towards ABA 1 µM, compound 0.1 nM): 38% | inhibition at 0.001 µM ([3]; Homo sapiens, migration towards ABA 1 µM, compound 1 nM): 47% | inhibition at 0.1 µM ([3]; Homo sapiens, migration towards ABA 1 µM, compound 100 nM): 80% | inhibition at 5 µM ([3]; Homo sapiens, migration towards ABA 1 µM, compound 5 µM): 100%
